Measurements published in patent US11660293B2, “Substituted 2-azabicyclo[3.1.1]heptane and 2-azabicyclo[3.2.1]octane derivatives as orexin receptor antagonists” (Chronos Therapeutics Limited, priority 2017, dated 2023).

Legend:
[1] = biological target: human Orexin type 1 receptors (Homo sapiens (Human), UniProt O43613); test: Scintillation Proximity Assay (SPA) binding assay, [3H]SB-674042 displacement, CHO-hOX1 membranes
[2] = biological target: human Orexin type 2 receptors (Homo sapiens (Human), UniProt O43614); test: Scintillation Proximity Assay (SPA) binding assay, [3H]EMPA displacement, HEK-hOX2 membranes
Sequence of human Orexin type 2 receptors (O43614 whole entry): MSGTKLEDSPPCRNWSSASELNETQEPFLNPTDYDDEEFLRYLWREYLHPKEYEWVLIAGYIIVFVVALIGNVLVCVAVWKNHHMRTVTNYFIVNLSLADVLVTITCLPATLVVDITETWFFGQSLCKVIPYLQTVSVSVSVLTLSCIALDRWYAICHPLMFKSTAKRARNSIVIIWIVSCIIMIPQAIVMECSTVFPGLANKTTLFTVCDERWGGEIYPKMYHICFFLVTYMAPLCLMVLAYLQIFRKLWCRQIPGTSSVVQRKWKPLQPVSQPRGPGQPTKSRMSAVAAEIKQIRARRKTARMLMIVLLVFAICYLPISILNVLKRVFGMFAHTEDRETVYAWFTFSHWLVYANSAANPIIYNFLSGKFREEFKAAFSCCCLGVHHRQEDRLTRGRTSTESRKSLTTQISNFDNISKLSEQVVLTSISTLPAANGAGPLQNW

Sequence of human Orexin type 1 receptors (O43613 whole entry): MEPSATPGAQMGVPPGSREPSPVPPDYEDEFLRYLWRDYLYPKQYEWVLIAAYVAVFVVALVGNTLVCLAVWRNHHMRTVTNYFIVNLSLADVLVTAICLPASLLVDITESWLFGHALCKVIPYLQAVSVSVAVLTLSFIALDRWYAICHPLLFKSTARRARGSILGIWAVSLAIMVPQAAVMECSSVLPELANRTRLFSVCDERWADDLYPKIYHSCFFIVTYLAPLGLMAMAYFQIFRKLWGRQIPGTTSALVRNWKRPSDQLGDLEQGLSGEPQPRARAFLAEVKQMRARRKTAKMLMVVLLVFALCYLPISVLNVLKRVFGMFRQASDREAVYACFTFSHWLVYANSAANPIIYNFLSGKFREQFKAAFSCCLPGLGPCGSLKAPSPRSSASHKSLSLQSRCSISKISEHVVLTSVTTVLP

Structure (SMILES)	OX1 pKi (SPA binding) ([1]; Table 2, [3H]SB-674042 2 nM)	OX2 pKi (SPA binding) ([2]; Table 2, [3H]EMPA 2 nM)	OX1 pKi (SPA binding) ([1]; Table 1, [3H]SB-674042 2 nM)	OX2 pKi (SPA binding) ([2]; Table 1, [3H]EMPA 2 nM)	also measured
C[C@@H]1C2CC(C2)N(C(=O)c2cc(F)ccc2-n2nccn2)C1CNc1cnc2ccccc2n1 (single isomer, unassigned) [Example 189, N-({(3R,4S) or (3S,4R)2-[5-fluoro-2-(2H-1,2,3-triazol-2-yl)benozyl]-4-methyl-2-azabicyclo[3.1.1]heptan-3-yl}methyl)quinoxalin-2-amine]	8.51	5.92	–	–	–
Cc1nc(C(=O)N2C(COc3ccc(Cl)cc3)CC3CC2C3)c(-c2ccccc2)s1 (stereo not shown) [Example 49]	–	–	7.88	6.81	–
Cc1nc(C(=O)N2[C@H]3C[C@H](C3)[C@@H](C)[C@H]2COc2ccc(F)cc2)c(-c2ccccn2)s1 (racemic) [Example 132, cis-3-[(4-fluorophenoxy)methyl]-4-methyl-2-[2-methyl-5-(pyridin-2-yl)-1,3-thiazole-4-carbonyl]-2-azabicyclo[3.1.1]heptane]	7.97	6.72	–	–	–
C[C@@H]1C2CC(C2)N(C(=O)c2cc(F)ccc2-n2nccn2)C1CNc1nc2ccc(F)cc2s1 (mixture of isomers) [Example 168, cis-6-fluoro-N-({2-[5-fluoro-2-(2H-1,2,3-triazol-2-yl)benzoyl]-4-methyl-2-azabicyclo[3.1.1]heptan-3-yl}methyl)-1,3-benzothiazol-2-amine]	8.46	5.88	–	–	–
Cc1nc(C(=O)N2C(COc3ccc(Br)cc3)CC3CC2C3)c(-c2ccccc2)s1 (stereo not shown) [Example 46]	–	–	7.62	6.51	–
Cc1ccc(-n2nccn2)c(C(=O)N2C3CC(C3)[C@H](C)C2CNc2nc3ccccc3s2)n1 (stereo partly drawn) [Example 150, trans-N-({4-methyl-2-[6-methyl-3-(2H-1,2,3-triazol-2-yl)pyridine-2-carbonyl]-2-azabicyclo[3.1.1]heptan-3-yl}methyl)-1,3-benzothiazol-2-amine]	7.5	6.14	–	–	–
Cc1nc(C(=O)N2C(CNc3nc4ccc(F)cc4s3)CC3CC2C3)c(-c2ccccc2)s1 (stereo not shown) [Example 61, 6-fluoro-N-{[2-(2-methyl-5-phenyl-1,3-thiazole-4-carbonyl)-2-azabicyclo[3.1.1]heptan-3-yl]methyl}-1,3-benzothiazol-2-amine]	–	–	9.12	8.03	–
Cc1ccc(-c2ncc(F)cn2)c(C(=O)N2C3CC(C3)[C@@H](C)C2COc2ccc(F)cc2)n1 (mixture of isomers) [Example 134, cis-3-[(4-fluorophenoxy)methyl]-2-[3-(5-fluropyrimidin-2-yl)-6-methylpyridine-2-carbonyl]-4-methyl-2-azabicyclo[3.1.1]heptane]	7.85	7.03	–	–	–
Cc1ccc(-n2nccn2)c(C(=O)N2C3CC(C3)[C@@H](C)C2CNc2cnc3cc(F)ccc3n2)n1 (single isomer, unassigned) [Example 200, 6-fluoro-N-{[(3R,4S) or (3S,4R)-4-methyl-2-[6-methyl-3-(2H-1,2,3-triazol-2-yl)pyridine-2-carbonyl]-2-azabicyclo[3.1.1]heptan-3-yl]methyl}quinoxalin-2-amine]	8.24	6.37	–	–	–
Cc1ccc(-n2nccn2)c(C(=O)N2C3CC(C3)[C@H](C)C2COc2ccc(F)cc2)c1 (stereo partly drawn) [Example 109, trans-3-[(4-fluorophenoxy)methyl]-4-methyl-2-[5-methyl-2-(2H-1,2,3-triazol-2-yl)benzoyl]-2-azabicyclo[3.1.1]heptane]	–	–	7.51	5.89	–
Cc1cn(-c2ccc(C)nc2C(=O)N2C3CC(C3)[C@@H](C)C2COc2ccc(F)cc2)nn1 (mixture of isomers) [Example 146, cis-3-[(4-fluorophenoxy)methyl]-4-methyl-2-[6-methyl-3-(4-methyl-1H-1,2,3-triazol-1-yl)pyridine-2-carbonyl]-2-azabicyclo[3.1.1]heptane]	6.88	5.53	–	–	–
C[C@@H]1C2CC(C2)N(C(=O)c2nn(C)cc2-c2ncccn2)C1CNc1cnc(C(F)(F)F)cn1 (mixture of isomers) [Example 245, cis-N-({4-methyl-2-[1-methyl-4-(pyrimidin-2-yl)-1H-pyrazole-3-carbonyl]-2-azabicyclo[3.1.1]heptan-3-yl}methyl)-5-(trifluoromethyl)pyrazin-2-amine]	7.55	4.49	–	–	–
C[C@@H]1C2CC(C2)N(C(=O)c2cc(F)ccc2-n2nccn2)C1CNc1ncc(C(F)(F)F)cn1 (stereo partly shown) [Example 251]	7.65	4.69	–	–	–
Cc1nc(C(=O)N2C(COc3ccccc3F)CC3CC2C3)c(-c2ccccc2)s1 (stereo not shown) [Example 45]	–	–	7.22	7.12	–
Cc1ccc(-n2nccn2)c(C(=O)N2C3CC(C3)[C@@H](C)C2CNc2cnc3ccccc3n2)n1 (mixture of isomers) [Example 158, cis-N-({4-methyl-2-[6-methyl-3-(2H-1,2,3-triazol-2-yl)pyridine-2-carbonyl]-2-azabicyclo[3.1.1]heptan-3-yl}methyl)quinoxalin-2-amine]	8.4	5.74	–	–	–
Cc1cnn(-c2ccc(C)nc2C(=O)N2C3CC(C3)[C@@H](C)C2COc2ccc(F)cc2)c1 (mixture of isomers) [Example 135, cis-3-[(4-fluorophenoxy)methyl]-4-methyl-2-[6-methyl-3-(4-methyl-1H-pyrazol-1-yl)pyridine-2-carbonyl]-2-azabicyclo[3.1.1]heptane]	7.78	6.39	–	–	–
Cc1ccc(-n2nccn2)c(C(=O)N2C3CC(C3)[C@@H](C)C2COc2ccc(F)cc2)n1 (stereo partly drawn) [Example 95, cis-3-[(4-fluorophenoxy)methyl]-4-methyl-2-[6-methyl-3-(2H-1,2,3-triazol-2-yl)pyridine-2-carbonyl]-2-azabicyclo[3.1.1]heptane]	–	–	8.09	6.6	–
Cc1ccc(-n2nccn2)c(C(=O)N2C3CC(C3)[C@@H](C)C2CNc2nc3ccc(F)cc3o2)n1 (mixture of isomers) [Example 218, cis-6-fluoro-N-({4-methyl-2-[6-methyl-3-(2H-1,2,3-triazol-2-yl)pyridine-2-carbonyl]-2-azabicyclo[3.1.1]heptan-3-yl}methyl)-1,3-benzoxazol-2-amine]	8.33	5.47	–	–	–
Cc1cccc(-c2sc(C)nc2C(=O)N2C3CC(C3)[C@@H](C)C2COc2ccc(F)cc2)n1 (mixture of isomers) [Example 137, cis-3-[(4-fluorophenoxy)methyl]-4-methyl-2-[2-methyl-5-(6-methylpyridin-2-yl)-1,3-thiazole-4-carbonyl]-2-azabicyclo[3.1.1]heptane]	7.97	6.34	–	–	–
C[C@@H]1C2CC(C2)N(C(=O)c2cc(F)ccc2-n2nccn2)C1CNc1cnc(C(F)(F)F)cn1 (mixture of isomers) [Example 221, cis-N-({2-[5-fluoro-2-(2H-1,2,3-triazol-2-yl)benzoyl]-4-methyl-2-azabicyclo[3.1.1]heptan-3-yl}methyl)-5-(trifluoromethyl)pyrazin-2-amine]	7.73	4.94	–	–	–
Cc1ccc(-c2nccs2)c(C(=O)N2C3CC(C3)[C@@H](C)C2COc2ccc(F)cc2)n1 (mixture of isomers) [Example 96, cis-3-[(4-fluorophenoxy)methyl]-4-methyl-2-[6-methyl-3-(1,3-thiazol-2-yl)pyridine-2-carbonyl]-2-azabicyclo[3.1.1]heptane]	–	–	8.18	6.88	–
Cc1nc(C(=O)N2C3CC(C3)[C@@H](C)[C@@H]2COc2cc3ccccc3cn2)c(-c2ccccc2)s1 (single isomer, unassigned) [Example 86, 3-{[(3R,4R or 3S,4S)-4-methyl-2-(2-methyl-5-phenyl-1,3-thiazole-4-carbonyl)-2-azabicyclo[3.1.1]heptan-3-yl]methoxy}isoquinoline]	–	–	–	–	Ki ([1]; Table 1, [3H]SB-674042 2 nM, read-out: OX1 pKi (SPA binding) (converted)): 89.1 nM; Ki ([2]; Table 1, [3H]EMPA 2 nM, read-out: OX2 pKi (SPA binding) (converted)): 1290 nM
Cc1ccc(-n2nccn2)c(C(=O)N2C3CC(C3)[C@@H](C)C2CNc2cncc(C(F)(F)F)n2)n1 (mixture of isomers) [Example 217, cis-N-({4-methyl-2-[6-methyl-3-(2H-1,2,3-triazol-2-yl)pyridine-2-carbonyl]-2-azabicyclo[3.1.1]heptan-3-yl}methyl)-6-(trifluoromethyl)pyrazin-2-amine]	6.85	5.29	–	–	–
Cc1ccc(-n2nccn2)c(C(=O)N2C3CC(C3)[C@@H](C)C2CNc2ccc(C(F)(F)F)cn2)n1 (mixture of isomers) [Example 181, cis-N-({4-methyl-2-[6-methyl-3-(2H-1,2,3-triazol-2-yl)pyridine-2-carbonyl]-2-azabicyclo[3.1.1]heptan-3-yl}methyl)-5-(trifluoromethyl)pyridin-2-amine]	8.09	5.09	–	–	–
Cc1nc(C(=O)N2C(COc3cccc(F)c3)CC3CC2C3)c(-c2ccccc2)s1 (stereo not shown) [Example 44]	–	–	7.15	6.38	–
Cc1ccc(-c2nccs2)c(C(=O)N2C3CC(C3)[C@@H](C)C2CNc2ccc(F)cc2)c1 (stereo partly drawn) [Example 202, cis-4-fluoro-N-({4-methyl-2-[5-methyl-2-(1,3-thiazol-2-yl)benzoyl]-2-azabicyclo[3.1.1]heptan-3-yl}methyl)aniline]	6.71	6.02	–	–	–
